The numbers were not newly measured in patent publication US20140162261A1, “DETECTION KIT FOR IDENTIFYING GENOTYPE IN DEPRESSION PATIENTS AND METHOD OF USING THE SAME” (priority 2012, published 2014), which cites them from elsewhere.

Series [1] addresses T1, striatal dopamine D2 receptors (Homo sapiens, UniProt P14416).
T1 construct: host or cells: striatum (in vivo)
The conditions noted are these: 4 mg dose.

For series [2] the following is noted: oral administration.
The subject of another series is depression patients. The conditions noted are these: SSRIs in combination with low-dose risperidone (0.5-1 mg/day), in 1-2 days.

T1 sequence (P14416 whole entry): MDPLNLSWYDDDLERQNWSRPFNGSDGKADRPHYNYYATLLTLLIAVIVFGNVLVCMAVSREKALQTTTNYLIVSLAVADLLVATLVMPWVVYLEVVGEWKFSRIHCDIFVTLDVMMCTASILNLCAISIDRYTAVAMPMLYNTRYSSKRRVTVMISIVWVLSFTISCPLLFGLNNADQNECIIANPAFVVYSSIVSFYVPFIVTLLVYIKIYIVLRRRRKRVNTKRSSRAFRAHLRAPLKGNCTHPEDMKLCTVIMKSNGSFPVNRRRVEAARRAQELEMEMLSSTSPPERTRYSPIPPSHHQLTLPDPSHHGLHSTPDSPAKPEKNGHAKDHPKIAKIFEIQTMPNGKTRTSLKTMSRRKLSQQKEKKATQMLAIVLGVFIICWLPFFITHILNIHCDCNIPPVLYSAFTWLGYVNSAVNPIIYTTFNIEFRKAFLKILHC

Regarding `Cc1nc2n(c(=O)c1CCN1CCC(c3noc4cc(F)ccc34)CC1)CCCC2` [Risperidone], in the series on cholinergic receptors, the “binding with cholinergic receptors” value was “does not bind”. Also, the “blockade of striatal dopamine D2 receptors” value in series [1] is given as 70-80%. In addition, in the series with α2-adrenergic receptors, the “affinity for α2-adrenergic receptors” value is listed as “low affinity”. Also, the “effect of food on digestion (absorption)” value in series [2] is “not affected by food”. Besides, the “improvement of patients' symptoms” value with depression patients is “significantly improve most of the patient's symptoms”.
